# How the values were obtained:
# [1] = target: Mitogen-activated protein kinase 14 (Homo sapiens) (UniProt Q16539); experiment: Inhibition of human p38-alpha assessed as residual activity at 0.1 uM relative to control
# [2] = target: Protein kinase C alpha type (Homo sapiens) (UniProt P17252); experiment: Inhibition of human PKCalpha assessed as residual activity at 0.1 uM relative to control
# [3] = target: Protein kinase C alpha type (Homo sapiens) (UniProt P17252); experiment: Inhibition of human PKCalpha assessed as residual activity at 1 uM relative to control
# [4] = target: Insulin-like growth factor 1 receptor (Homo sapiens) (UniProt P08069); experiment: Inhibition of human IGF1R assessed as residual activity at 0.1 uM relative to control
# [5] = target: Receptor-interacting serine/threonine-protein kinase 2 (Homo sapiens) (UniProt O43353); experiment: Inhibition of human RIPK2 assessed as residual activity at 0.1 uM relative to control
# Receptor-interacting serine/threonine-protein kinase 2 (Homo sapiens), sequence (O43353 whole entry, canonical isoform): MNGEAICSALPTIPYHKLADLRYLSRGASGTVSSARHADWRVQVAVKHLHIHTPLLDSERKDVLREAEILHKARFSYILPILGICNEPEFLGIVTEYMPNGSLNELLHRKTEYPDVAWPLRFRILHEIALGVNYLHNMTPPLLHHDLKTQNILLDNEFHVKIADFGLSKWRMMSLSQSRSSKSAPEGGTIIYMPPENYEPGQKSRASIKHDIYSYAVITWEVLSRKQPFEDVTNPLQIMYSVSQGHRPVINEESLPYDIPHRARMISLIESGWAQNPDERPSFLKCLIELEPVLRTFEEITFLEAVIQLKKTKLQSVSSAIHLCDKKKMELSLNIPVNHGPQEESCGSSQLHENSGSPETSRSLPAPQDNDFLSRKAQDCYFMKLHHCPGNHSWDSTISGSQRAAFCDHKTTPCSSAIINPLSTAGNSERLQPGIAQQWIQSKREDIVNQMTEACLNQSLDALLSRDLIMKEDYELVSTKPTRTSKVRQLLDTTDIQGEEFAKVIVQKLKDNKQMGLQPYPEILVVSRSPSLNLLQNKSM
# [6] = target: Casein kinase I isoform delta (Homo sapiens) (UniProt P48730); experiment: Inhibition of human CK1-delta assessed as residual activity at 0.1 uM relative to control
# Casein kinase I isoform delta (Homo sapiens), sequence (P48730 whole entry, looked up, canonical isoform): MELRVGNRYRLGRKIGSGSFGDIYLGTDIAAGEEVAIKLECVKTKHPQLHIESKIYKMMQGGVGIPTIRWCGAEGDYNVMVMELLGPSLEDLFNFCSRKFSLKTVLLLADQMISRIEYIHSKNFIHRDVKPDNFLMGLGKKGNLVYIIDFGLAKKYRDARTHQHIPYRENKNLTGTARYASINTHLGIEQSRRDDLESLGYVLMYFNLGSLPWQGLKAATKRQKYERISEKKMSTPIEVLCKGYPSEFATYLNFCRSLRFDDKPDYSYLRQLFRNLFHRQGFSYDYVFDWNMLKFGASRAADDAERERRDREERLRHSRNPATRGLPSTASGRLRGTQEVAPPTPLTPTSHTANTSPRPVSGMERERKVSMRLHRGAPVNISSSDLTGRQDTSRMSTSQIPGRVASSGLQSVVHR
# [7] = target: Tyrosine-protein kinase Lck (Homo sapiens) (UniProt P06239); experiment: Inhibition of human LCK assessed as residual activity at 0.1 uM relative to control
# Tyrosine-protein kinase Lck (Homo sapiens), sequence (P06239 2-509 limits assumed): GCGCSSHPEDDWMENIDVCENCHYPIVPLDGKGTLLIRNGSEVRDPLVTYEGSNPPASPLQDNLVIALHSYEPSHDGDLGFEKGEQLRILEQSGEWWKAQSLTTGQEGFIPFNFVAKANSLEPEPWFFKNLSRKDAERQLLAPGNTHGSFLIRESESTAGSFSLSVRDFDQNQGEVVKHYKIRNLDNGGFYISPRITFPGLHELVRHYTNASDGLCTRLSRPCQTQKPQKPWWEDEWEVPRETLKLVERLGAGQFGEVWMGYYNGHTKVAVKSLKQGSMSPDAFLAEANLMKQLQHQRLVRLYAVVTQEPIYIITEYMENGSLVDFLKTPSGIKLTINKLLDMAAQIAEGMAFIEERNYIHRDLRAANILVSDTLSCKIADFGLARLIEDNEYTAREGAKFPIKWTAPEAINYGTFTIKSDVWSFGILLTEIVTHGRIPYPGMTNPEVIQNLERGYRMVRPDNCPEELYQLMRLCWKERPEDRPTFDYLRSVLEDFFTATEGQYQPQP
# [8] = target: T1, Serine/threonine-protein kinase Sgk1 (Homo sapiens) (UniProt O00141); experiment: Inhibition of human SGK1 assessed as residual activity at 1 uM relative to control
# T1 sequence (whole entry): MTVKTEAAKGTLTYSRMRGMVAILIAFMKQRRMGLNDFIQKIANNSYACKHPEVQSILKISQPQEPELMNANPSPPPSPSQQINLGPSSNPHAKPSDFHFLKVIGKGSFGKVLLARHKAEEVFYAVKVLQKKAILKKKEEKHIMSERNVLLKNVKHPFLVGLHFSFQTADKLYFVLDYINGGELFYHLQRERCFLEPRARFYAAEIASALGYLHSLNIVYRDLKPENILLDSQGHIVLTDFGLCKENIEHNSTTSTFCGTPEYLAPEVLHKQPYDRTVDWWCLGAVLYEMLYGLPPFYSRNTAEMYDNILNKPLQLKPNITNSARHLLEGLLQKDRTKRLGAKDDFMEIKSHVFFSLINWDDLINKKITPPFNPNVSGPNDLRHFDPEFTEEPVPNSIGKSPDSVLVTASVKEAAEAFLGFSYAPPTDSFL
# [9] = target: SRSF protein kinase 1 (Homo sapiens) (UniProt Q96SB4); experiment: Inhibition of human SRPK1 assessed as residual activity at 1 uM relative to control
# [10] = target: Myosin light chain kinase, smooth muscle (Homo sapiens) (UniProt Q15746); experiment: Inhibition of human MYLK assessed as residual activity at 0.1 uM relative to control
# [11] = target: Tyrosine-protein kinase BTK (Homo sapiens) (UniProt Q06187); experiment: Inhibition of human BTK assessed as residual activity at 1 uM relative to control
# Tyrosine-protein kinase BTK (Homo sapiens), sequence (Q06187 whole entry): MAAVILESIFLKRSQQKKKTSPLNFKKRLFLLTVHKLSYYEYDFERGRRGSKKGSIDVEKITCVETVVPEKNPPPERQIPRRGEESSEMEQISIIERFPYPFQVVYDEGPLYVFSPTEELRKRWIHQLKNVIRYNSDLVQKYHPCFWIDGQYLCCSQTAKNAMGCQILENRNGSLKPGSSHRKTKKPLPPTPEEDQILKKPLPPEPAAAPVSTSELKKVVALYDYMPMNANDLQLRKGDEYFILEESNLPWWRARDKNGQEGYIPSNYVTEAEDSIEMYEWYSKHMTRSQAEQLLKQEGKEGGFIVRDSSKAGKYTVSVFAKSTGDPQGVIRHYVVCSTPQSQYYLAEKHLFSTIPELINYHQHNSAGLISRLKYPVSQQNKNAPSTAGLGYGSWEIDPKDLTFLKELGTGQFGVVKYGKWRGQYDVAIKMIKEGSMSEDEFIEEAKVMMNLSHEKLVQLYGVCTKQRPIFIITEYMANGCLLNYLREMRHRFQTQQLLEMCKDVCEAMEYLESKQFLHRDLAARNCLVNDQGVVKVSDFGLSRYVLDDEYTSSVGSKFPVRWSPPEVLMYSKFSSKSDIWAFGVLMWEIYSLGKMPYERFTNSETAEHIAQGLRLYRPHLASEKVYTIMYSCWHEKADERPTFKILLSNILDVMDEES
# [12] = target: Ribosomal protein S6 kinase alpha-5 (Homo sapiens) (UniProt O75582); experiment: Inhibition of human RPS6KA5 assessed as residual activity at 1 uM relative to control
# [13] = target: Calcium/calmodulin-dependent protein kinase kinase 2 (Homo sapiens) (UniProt Q96RR4); experiment: Inhibition of human CAMKK2 assessed as residual activity at 0.1 uM relative to control
# [14] = target: MAP/microtubule affinity-regulating kinase 3 (Homo sapiens) (UniProt P27448); experiment: Inhibition of human MARK3 assessed as residual activity at 0.1 uM relative to control
# [15] = target: T2, Serine/threonine-protein kinase D1 (Homo sapiens) (UniProt Q15139); experiment: Inhibition of human PKCmu assessed as residual activity at 0.1 uM relative to control
# T2 sequence (whole entry): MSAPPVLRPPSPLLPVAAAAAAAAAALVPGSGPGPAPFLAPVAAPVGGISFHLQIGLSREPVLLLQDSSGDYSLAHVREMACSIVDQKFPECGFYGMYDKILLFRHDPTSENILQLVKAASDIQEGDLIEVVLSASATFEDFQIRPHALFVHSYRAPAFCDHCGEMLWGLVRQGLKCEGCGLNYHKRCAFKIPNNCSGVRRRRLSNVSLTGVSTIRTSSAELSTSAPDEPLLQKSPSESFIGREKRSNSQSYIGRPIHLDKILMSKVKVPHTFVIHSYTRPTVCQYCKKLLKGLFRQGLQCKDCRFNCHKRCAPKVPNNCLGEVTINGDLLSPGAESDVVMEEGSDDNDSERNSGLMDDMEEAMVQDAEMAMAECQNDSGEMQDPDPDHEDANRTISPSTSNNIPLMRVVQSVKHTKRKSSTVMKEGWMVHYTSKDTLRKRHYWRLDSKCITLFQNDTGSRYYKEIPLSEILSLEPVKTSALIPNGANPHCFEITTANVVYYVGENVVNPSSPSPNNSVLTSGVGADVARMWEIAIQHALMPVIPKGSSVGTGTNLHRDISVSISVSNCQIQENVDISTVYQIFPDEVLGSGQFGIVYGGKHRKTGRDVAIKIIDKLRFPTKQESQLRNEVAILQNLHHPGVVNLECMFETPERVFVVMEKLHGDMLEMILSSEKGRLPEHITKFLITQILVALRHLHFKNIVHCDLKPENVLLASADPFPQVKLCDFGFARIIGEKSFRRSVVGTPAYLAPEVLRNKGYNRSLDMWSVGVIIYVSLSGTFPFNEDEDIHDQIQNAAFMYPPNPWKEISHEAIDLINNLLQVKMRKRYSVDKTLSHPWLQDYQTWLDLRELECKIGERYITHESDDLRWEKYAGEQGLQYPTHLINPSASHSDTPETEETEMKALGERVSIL
# [16] = target: Serine/threonine-protein kinase Chk2 (Homo sapiens) (UniProt O96017); experiment: Inhibition of human CHK2 assessed as residual activity at 0.1 uM relative to control
# [17] = target: RAC-alpha serine/threonine-protein kinase (Homo sapiens) (UniProt P31749); experiment: Inhibition of human AKT1 (104 to 408 residues) assessed as residual activity at 0.1 uM relative to control
# RAC-alpha serine/threonine-protein kinase (Homo sapiens), sequence (P31749 whole entry, the tested form may be a part): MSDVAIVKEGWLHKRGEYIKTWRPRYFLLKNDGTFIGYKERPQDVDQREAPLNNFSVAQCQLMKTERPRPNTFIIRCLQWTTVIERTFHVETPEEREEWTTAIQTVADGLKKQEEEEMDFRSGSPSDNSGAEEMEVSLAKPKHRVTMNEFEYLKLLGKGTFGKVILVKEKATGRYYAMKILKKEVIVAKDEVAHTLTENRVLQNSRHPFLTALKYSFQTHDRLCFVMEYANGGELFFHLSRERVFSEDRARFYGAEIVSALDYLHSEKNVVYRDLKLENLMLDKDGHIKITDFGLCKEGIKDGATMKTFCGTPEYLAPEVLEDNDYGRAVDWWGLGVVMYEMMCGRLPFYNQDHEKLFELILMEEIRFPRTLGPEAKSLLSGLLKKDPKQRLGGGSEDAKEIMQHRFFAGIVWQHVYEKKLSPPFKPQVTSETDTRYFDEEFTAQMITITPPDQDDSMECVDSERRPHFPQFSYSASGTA
# [18] = target: Serine/threonine-protein kinase PLK1 (Homo sapiens) (UniProt P53350); experiment: Inhibition of human PLK1 assessed as residual activity at 1 uM relative to control
# Serine/threonine-protein kinase PLK1 (Homo sapiens), sequence (P53350 whole entry): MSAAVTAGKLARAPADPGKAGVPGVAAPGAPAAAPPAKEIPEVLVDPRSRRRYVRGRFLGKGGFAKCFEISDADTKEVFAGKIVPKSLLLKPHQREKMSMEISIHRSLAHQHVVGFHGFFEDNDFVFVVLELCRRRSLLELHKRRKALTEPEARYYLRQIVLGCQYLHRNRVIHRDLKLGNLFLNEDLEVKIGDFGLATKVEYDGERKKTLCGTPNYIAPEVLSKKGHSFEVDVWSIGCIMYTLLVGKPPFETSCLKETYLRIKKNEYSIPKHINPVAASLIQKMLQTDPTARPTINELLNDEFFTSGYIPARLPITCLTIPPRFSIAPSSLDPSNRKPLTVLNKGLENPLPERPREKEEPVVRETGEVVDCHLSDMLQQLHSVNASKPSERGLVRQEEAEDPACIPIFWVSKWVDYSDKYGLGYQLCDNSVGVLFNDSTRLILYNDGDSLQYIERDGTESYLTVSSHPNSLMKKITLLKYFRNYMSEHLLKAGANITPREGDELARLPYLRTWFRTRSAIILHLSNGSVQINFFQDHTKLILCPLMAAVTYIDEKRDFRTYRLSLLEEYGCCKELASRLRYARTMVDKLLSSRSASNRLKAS
# [19] = target: Receptor tyrosine-protein kinase erbB-4 (Homo sapiens) (UniProt Q15303); experiment: Inhibition of human ERBB4 assessed as residual activity at 1 uM relative to control
# [20] = target: Tyrosine-protein kinase JAK2 (Homo sapiens) (UniProt O60674); experiment: Inhibition of human JAK2 assessed as residual activity at 1 uM relative to control
# Tyrosine-protein kinase JAK2 (Homo sapiens), sequence (O60674 whole entry): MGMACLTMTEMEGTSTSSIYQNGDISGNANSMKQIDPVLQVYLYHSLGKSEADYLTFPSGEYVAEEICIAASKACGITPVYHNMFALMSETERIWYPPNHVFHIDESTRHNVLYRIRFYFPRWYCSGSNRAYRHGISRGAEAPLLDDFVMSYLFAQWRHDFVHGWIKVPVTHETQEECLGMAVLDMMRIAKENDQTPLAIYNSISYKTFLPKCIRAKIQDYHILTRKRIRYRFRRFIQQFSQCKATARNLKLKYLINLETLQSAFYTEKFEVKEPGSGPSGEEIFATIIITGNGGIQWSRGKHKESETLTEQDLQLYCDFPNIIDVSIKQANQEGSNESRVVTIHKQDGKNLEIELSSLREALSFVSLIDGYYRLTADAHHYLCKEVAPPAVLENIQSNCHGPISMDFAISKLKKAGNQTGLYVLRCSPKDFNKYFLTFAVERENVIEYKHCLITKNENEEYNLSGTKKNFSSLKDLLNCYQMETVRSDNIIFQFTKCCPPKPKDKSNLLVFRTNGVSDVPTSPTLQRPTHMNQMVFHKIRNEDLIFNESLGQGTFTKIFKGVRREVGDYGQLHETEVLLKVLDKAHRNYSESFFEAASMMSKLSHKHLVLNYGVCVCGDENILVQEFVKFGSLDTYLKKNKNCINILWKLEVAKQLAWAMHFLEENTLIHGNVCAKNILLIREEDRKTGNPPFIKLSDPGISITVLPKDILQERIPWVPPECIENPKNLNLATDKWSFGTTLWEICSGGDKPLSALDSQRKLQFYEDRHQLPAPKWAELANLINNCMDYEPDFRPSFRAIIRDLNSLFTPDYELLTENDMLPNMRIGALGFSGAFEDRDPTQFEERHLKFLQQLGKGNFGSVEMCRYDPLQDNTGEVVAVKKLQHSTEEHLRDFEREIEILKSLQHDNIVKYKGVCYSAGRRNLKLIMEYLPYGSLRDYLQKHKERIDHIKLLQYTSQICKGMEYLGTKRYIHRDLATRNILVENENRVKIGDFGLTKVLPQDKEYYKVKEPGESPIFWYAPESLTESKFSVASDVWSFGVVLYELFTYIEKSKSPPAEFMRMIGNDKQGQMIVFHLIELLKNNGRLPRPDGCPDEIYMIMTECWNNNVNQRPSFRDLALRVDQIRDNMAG
# [21] = target: Serine/threonine-protein kinase N2 (Homo sapiens) (UniProt Q16513); experiment: Inhibition of human PRK2 assessed as residual activity at 1 uM relative to control
# [22] = target: Dual specificity mitogen-activated protein kinase kinase 1 (Homo sapiens) (UniProt Q02750); experiment: Inhibition of human wild type MEK1 assessed as residual activity at 1 uM relative to control
Compound,Activity [1] [%],Activity [2] [%],Activity [3] [%],Activity [4] [%],Activity [5] [%],Activity [6] [%],Activity [7] [%],Activity [8] [%],Activity [9] [%],Activity [10] [%],Activity [11] [%],Activity [12] [%],Activity [13] [%],Activity [14] [%],Activity [15] [%],Activity [16] [%],Activity [17] [%],Activity [18] [%],Activity [19] [%],Activity [20] [%],also measured
COc1ccc2[nH]cc(/C=C3\C(=O)Nc4ccc(S(N)(=O)=O)cc43)c2c1,102,104,87,98,96,92,72,49,93,94,91,95,83,101,95,59,115,95,60,67,Activity [21]: 81%; Activity [22]: 72%
COc1ccc2c(c1)c(/C=C1\C(=O)Nc3ccc(S(=O)(=O)N(C)C)cc31)cn2C,95,93,95,94,104,89,81,80,95,94,89,108,76,93,89,100,101,93,85,72,Activity [21]: 94%; Activity [22]: 97%
COc1ccc2c(c1)c(/C=C1\C(=O)Nc3ccc(S(N)(=O)=O)cc31)cn2C,106,91,102,105,100,87,65,75,99,94,107,95,53,96,90,35,92,93,87,86,Activity [21]: 89%; Activity [22]: 71%
Cn1cc(/C=C2\C(=O)Nc3ccc(S(N)(=O)=O)cc32)c2ccccc21,107,106,94,105,102,88,64,55,101,97,119,93,62,93,95,9,92,91,101,67,Activity [21]: 78%; Activity [22]: 59%
CNS(=O)(=O)c1ccc2c(c1)/C(=C/c1cn(C)c3ccc(OC)cc13)C(=O)N2,102,101,103,96,108,89,45,81,101,92,73,88,56,100,92,93,93,87,42,87,Activity [21]: 86%; Activity [22]: 93%
CN(C)S(=O)(=O)c1ccc2c(c1)/C(=C/c1cn(C)c3ccc(O)cc13)C(=O)N2,97,96,103,102,94,88,62,81,94,91,107,107,73,103,99,94,105,91,95,55,Activity [21]: 89%; Activity [22]: 98%

# Reference: ChEMBL document CHEMBL4765228, “Indole-like Trk receptor antagonists” (Eur J Med Chem, 2016)
